Measured values from patent US5684151A, “1-arylsulphonyl, arylcarbonyl and 1-arylphosphonyl-3-phenyl-1,4,5,6-tetrahydropyridazines” (priority 1995, dated 1997).
pIC50: −log10 of the molar value. Like-named read-outs stand apart in the source and are kept apart here.

Legend:
[1] = target: T1, progestin receptor from rabbit uterus (Oryctolagus cuniculus, UniProt P06186); assay: Progestin receptor binding (3H-R5020 displacement); settings: rabbit uterine cytosol, 4° C., 18 h, read-out: IC50: Binding affinity for the progestin receptor from rabbit uterus
T1 construct: Cytosolic progestin receptor were obtained by mixing rabbit uterine tissue with a Tris buffer; from tissue; host or cells: rabbit uterus cytosol
T1 sequence (P06186 whole entry): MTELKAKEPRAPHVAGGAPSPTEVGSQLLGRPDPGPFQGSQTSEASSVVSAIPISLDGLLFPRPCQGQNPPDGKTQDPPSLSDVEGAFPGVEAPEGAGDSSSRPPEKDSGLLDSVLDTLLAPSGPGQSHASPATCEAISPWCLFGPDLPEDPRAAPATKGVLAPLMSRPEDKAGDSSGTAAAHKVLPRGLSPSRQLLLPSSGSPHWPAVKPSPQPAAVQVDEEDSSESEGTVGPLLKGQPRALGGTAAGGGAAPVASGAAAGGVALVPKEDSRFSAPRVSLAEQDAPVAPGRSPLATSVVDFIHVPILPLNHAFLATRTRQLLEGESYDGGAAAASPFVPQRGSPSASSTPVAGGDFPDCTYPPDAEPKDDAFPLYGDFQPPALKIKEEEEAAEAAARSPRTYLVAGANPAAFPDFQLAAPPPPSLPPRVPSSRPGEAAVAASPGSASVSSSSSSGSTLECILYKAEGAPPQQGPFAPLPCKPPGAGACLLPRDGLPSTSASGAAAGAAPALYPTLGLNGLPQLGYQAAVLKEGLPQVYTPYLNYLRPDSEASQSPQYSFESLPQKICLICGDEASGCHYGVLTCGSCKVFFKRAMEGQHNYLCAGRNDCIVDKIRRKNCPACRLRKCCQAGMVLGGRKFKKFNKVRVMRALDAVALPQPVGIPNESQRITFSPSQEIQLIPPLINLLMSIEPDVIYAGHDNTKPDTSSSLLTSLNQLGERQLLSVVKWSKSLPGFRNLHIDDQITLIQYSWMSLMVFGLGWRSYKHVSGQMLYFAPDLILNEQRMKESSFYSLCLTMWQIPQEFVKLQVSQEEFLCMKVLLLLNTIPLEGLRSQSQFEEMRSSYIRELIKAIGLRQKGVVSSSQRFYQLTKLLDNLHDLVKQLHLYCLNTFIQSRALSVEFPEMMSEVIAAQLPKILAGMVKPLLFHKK
Method in brief: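 Rabbit uterine cytosol in Tris buffer pH 7.4 with EDTA, DTT and molybdate was incubated with 3H-R5020 and test compound (5% DMSO final) at 4 °C for about 18 h. Bound ligand was separated with dextran-coated charcoal and counted by scintillation; IC50 is 50% radioligand displacement, with nonspecific binding defined by excess unlabelled ligand.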

[2] = system: mouse (MC3T3-E1) and human (TE-85) osteoblast-line cells; assay type: cell-based
Method in brief: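 MC3T3-E1 or TE-85 cells were plated overnight in DMEM/25 mM HEPES/10% FBS and then preincubated 24 h in 0.1% FBS. Compounds were added for 20 h, followed by a 4 h pulse of 0.4 μCi ^3H-thymidine. Incorporated radioactivity served as the proliferation index, expressed as % of control (control = 100%).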

| SMILES | pIC50 [1] | Osteoblast Cell Proliferation, 3H-thymidine incorporation vs control (100%) ([2]; 10^-6) [%] | Osteoblast Cell Proliferation, 3H-thymidine incorporation vs control (100%) ([2]; 10^-7) [%] | Osteoblast Cell Proliferation, 3H-thymidine incorporation vs control (100%) ([2]; 10^-8) [%] | Osteoblast Cell Proliferation, 3H-thymidine incorporation vs control (100%) ([2]; 10^-9) [%] | Osteoblast Cell Proliferation, 3H-thymidine incorporation vs control (100%) ([2]; 10^-10) [%] |
| --- | --- | --- | --- | --- | --- | --- |
| COc1ccc(C2=NN(S(=O)(=O)c3ccccc3)CCC2)cc1 [Compound 64] | 6.26 | 116 | 115 | 121 | 128 | 137 |
| COc1ccc(C2=NN(S(=O)(=O)c3ccc4ccccc4c3)CCC2)cc1 [Compound 65] | 7.24 | 90 | 98 | 94 | 88 | 80 |
| CCCCc1ccc(C2=NN(S(=O)(=O)c3ccc(I)cc3)CCC2)cc1 [Compound 71] | 5.00 | 110 | 114 | 99 | 103 | 98 |
| CCCCc1ccc(C2=NN(S(=O)(=O)c3ccc4ccccc4c3)CCC2)cc1 [Compound 72] | 5.00 | 113 | 119 | 129 | 120 | 123 |
| O=S(=O)(c1ccc(Cl)c(Cl)c1)N1CCCC(c2ccc(Cl)c(C(F)(F)F)c2)=N1 [Compound 81] | 7.78 |  | 110 | 119 | 119 | 128 |
| O=S(=O)(c1ccc(Cl)cc1)N1CCCC(c2ccc(-c3ccccc3)cc2)=N1 [Compound 84] | 6.00 | 108 | 119 | 130 | 127 | 122 |
| O=S(=O)(c1ccc2ccccc2c1)N1CCCC(c2ccc(-c3ccccc3)cc2)=N1 [Compound 85] | 6.00 | 99 | 80 | 76 | 54 | 48 |
| O=S(=O)(c1ccccc1)N1CCCC(c2ccc(-c3ccccc3)cc2)=N1 [Compound 86] | 6.64 | 100 | 114 | 94 | 103 | 101 |
| Cc1ccc(S(=O)(=O)N2CCCC(c3ccc4c(c3)CCCC4)=N2)cc1 [Compound 87] | 7.09 | 120 | 115 | 125 | 117 | 127 |
| O=S(=O)(c1ccc(Cl)cc1)N1CCCC(c2ccc3c(c2)CCCC3)=N1 [Compound 88] | 7.99 | 97 | 109 | 89 | 74 | 62 |
| O=S(=O)(c1cc(Cl)ccc1Cl)N1CCCC(c2ccc3c(c2)CCCC3)=N1 [Compound 89] | 7.67 | 115 | 97 | 113 | 106 | 98 |
| O=S(=O)(c1ccccc1)N1CCCC(c2ccc3c(c2)CCCC3)=N1 [Compound 90] | 7.14 | 90 | 95 | 68 | 68 | 42 |
| O=S(=O)(c1ccc2ccccc2c1)N1CCCC(c2cccc(Cl)c2)=N1 [Compound 94] | 7.84 | 110 | 85 | 90 | 110 | 130 |
| O=S(=O)(c1ccc(I)cc1)N1CCCC(c2ccc3c(c2)CCCC3)=N1 [Compound 113] | 7.56 | 66 | 94 | 102 | 102 | 90 |
| CC1CC(c2ccccc2)=NN(S(=O)(=O)c2cc(Cl)ccc2Cl)C1 (stereo not shown) [Compound 144] | 7.14 |  | 112 | 122 | 117 | 108 |
| O=S(=O)(c1c(F)c(F)c(F)c(F)c1F)N1CCCC(c2ccc(F)cc2)=N1 [Compound 152, 3-(4-Fluorophenyl)-1-(pentafluorobenzenesulfonyl)-1,4,5,6-tetrahydropyridazine] | 6.76 | 87 | 123 | 124 | 149 | 161 |
| Nc1ccc(S(=O)(=O)N2CCCC(c3ccc(Cl)cc3)=N2)cc1 [Compound 153, 1-(4-Aminobenzenesulfonyl)-3-(4-chlorophenyl)-1,4,5,6-tetrahydropyridazine] | 6.20 | 85 | 115 | 83 | 99 | 103 |
| CC(=O)Nc1ccc(S(=O)(=O)N2CCCC(c3ccc(Cl)cc3)=N2)cc1 [Compound 154] | 6.09 | 97 | 111 | 107 | 124 | 115 |
